Measurements as given in patent publication US8420605B2, “Hydrogel compositions” (The University of Strathclyde, priority 2005, dated 2013).
Peptide text beside a SMILES is read from it. * marks the point of attachment. Fmoc = O=C(OCC1c2ccccc2-c2ccccc21)*

Legend:
[1] = system: human adult dermal fibroblasts; test: 2D culture on surface of self-assembled peptide hydrogel, cell phenotype under inverted light microscope; type: cell-based; details: for appearance of fibroblasts on top of hydrogel: 10 mM/L gel
Experimental: An initial 2D culture of human adult dermal fibroblasts was carried out on the surface of 10 mM/L Fmoc-Phe-Phe-OH self-assembled peptide hydrogels and cell phenotype was investigated under inverted light microscope.
(§1) Generally, 0.0107 gram of Fmoc-Phe-Phe-OH was weighed in a glass vial and sterilized for 30 minutes by an ultraviolet light with bottles of distilled water, filtered NaOH (Sodium Hydroxide, 0.5 M/L), filtered HCl (Hydrochloric Acid, 0.5 M/L), and relevant apparatus (spatulas, pipettes, Vortex). 2 mL of the sterile distilled water was then added into the glass vial of Fmoc-Phe-Phe, and the mixture was vortexed for a few seconds to create a suspension. Afterwards, approximate 100 μL of NaOH was gradually pipetted into the suspension (20 μL each pipetting) and the mixture was vortexed after every addition of the alkaline. The whole mixture was shaken continually until a homogeneous transparent solution was obtained. The basic peptide solution (pH around 10) was finally neutralized to pH 7 by dropwise addition of HCl and pH values were monitored by a pH meter with a micro-probe.
The above peptide solutions of physiological pH were aliquoted into a 24 well-plate with 500 μL in each well and the well plate was maintained in a 37° C./5% CO2 incubator overnight. The solution underwent a self-assembling to become hydrogels. Human adult dermal fibroblasts in suspension were then poured on top of the self-assembled hydrogels with 1 mL cell suspension for each well. Cell suspensions of 8×10^4/mL were used with a serum-free DMEM (Dulbecco's modified Eagle's medium) supplemented by 1% antibiotics/antimicotics. […] These originally spreaded cells, however, became rounded with a diameter of around 10 microns between 24 and 72 hours. The phenomenon indicated of a dynamic solid (gel)-liquid (culture medium) interface which formed a malleable, unstable gel surface to wrap and sink cells into the interacted nano-filaments of the gel structure resulting the cells' rounding up.

[2] = system: human adult dermal fibroblasts; test: LDH assay of cell viability (3D culture); type: cell-based
Experimental: In order to quantitatively test cell viability in the 3D culture, LDH assay was adopted which tested the amount of lactate dehydrogenase inside cell […] (reflecting cell numbers).
as §1, with “0.0107” for “Generally, 0.0107”, “Fmoc-Phe-Phe-OH,” for “Fmoc-Phe-Phe,”, “micro-probe. […]” for “micro-probe.”
The culture was maintained in a 37° C./5% CO2 incubator for a 10 day period and LDH assay was carried out after 1 hour, 1 day, 3 days, 7 days, and 10 days. […] Assay reagent was then added, the mixture was incubated, and light absorbance at 490 nm was then measured. Absorbance was converted to cell number according to a standard. […]

O=C(N[C@@H](Cc1ccccc1)C(=O)N[C@@H](Cc1ccccc1)C(=O)O)OCC1c2ccccc2-c2ccccc21 [Entry 1, Fmoc-Phe-Phe-OH] (Fmoc-Phe-Phe-OH)
appearance of fibroblasts on top of hydrogel ([1]; 4 hours, 2D culture): spreaded
appearance of fibroblasts on top of hydrogel ([1]; 6 hours, 2D culture): spreaded
appearance of fibroblasts on top of hydrogel ([1]; 24 hours, 2D culture): rounded
diameter of rounded cells ([1]; between 24 and 72 hours, 2D culture): around 10 microns
cell attachment and spreading ([1]; within the first 8 hours of culturing, 2D): cell attachment and spreading was observed
cell number (LDH assay), initial course ([2]; 3D culture, 10 day period): initially a decreasing of cell numbers
cell number increase (LDH assay) ([2]; from day 7 to day 10, 3D culture): 5 folds
